Data from US20220378923A1, “BET DEGRADER” (KYOWA KIRIN CO., LTD., priority 2019, published 2022).

Tests used:
Type in all cases: cell-based
Conditions in all cases: SU-DHL-4 cells, test compound 100 nmol/L, 24 hours
BRD3 = target: T1, BRD3 (Homo sapiens, UniProt Q15059); experiment: Evaluation of BET proteolysis in SU-DHL-4 cell line by Western blotting: BRD3 (Test Example 4)
T1 construct: Changes in the amount of BRD4, BRD2 and BRD3 proteins in the SU-DHL-4 cell line; endogenous in cells; host or cells: SU-DHL-4
T1 sequence (Q15059 whole entry): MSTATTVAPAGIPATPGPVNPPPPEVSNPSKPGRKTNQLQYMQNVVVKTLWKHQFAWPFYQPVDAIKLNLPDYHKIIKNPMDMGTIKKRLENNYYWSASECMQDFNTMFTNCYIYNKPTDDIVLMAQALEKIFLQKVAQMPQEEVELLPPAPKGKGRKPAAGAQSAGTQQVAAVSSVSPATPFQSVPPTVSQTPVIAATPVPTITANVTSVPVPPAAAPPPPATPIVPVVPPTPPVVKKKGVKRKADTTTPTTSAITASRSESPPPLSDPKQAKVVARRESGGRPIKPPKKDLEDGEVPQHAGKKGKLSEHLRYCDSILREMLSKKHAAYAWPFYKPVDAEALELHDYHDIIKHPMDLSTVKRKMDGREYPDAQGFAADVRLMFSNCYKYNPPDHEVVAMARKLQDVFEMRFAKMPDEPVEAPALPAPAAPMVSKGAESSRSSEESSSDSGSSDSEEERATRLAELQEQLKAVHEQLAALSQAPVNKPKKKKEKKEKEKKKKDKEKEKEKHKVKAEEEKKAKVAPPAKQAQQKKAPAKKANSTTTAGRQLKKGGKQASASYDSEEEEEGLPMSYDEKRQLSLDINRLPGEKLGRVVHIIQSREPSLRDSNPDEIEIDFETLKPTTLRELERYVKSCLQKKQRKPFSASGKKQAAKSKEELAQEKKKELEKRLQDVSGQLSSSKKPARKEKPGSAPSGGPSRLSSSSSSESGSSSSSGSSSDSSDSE
Protocol: (§1) The human DLBCL cell line SU-DHL-4 was purchased from DSMZ. SU-DHL-4 was passaged using RPMI1640 medium containing 10 vol % FBS. The culture conditions were 37° C. and 5% CO2.
Anti-BRD3 antibody: Anti-BRD3 antibody (2088C3a) (Santa Cruz Biotechnology, Cat No. sc-81202)
(§2) Changes in the amount of BRD4, BRD2 and BRD3 proteins in the SU-DHL-4 cell line by the test compound (compound 1b, compound 1l or compound P3) were detected by WB. The compound P3 is a compound described as example 14 in the known Patent Document 2 (WO 2015/081284), which was synthesized according to the method described in Patent Document 2 and used in this test.
(§3) The cultured SU-DHL-4 cells were seeded at 6×10^5 cells/well in a transparent 6-well plate (Code No. 140675, Thermo Fisher Scientific). After seeding, the cells were pre-cultured at 37° C. in a carbon dioxide gas incubator for 18 to 25 hours. Next, a 0.1 mmol/L DMSO solution of the test compound was prepared, diluted so that the concentration was 200-fold of the final concentration in RPMI1640 medium containing the above FBS and PS, and 1/200 volume of the diluted solution was added to each well. At this time, the final concentration of DMSO was adjusted to be 0.1 vol %. After adding the test compound, the cells were cultured at 37° C. in a carbon dioxide gas incubator for 24 hours.
(§4) After collecting the cells, the supernatant was aspirated, and Lysis buffer 6 (R&D systems, Cat No. 895561) was added to the pellet at 0.1 mL/sample. After incubating on ice for 60 minutes, the supernatant was collected by centrifugation at 15000 rpm for 10 minutes at 4° C.
(§5) Using Pierce BCA Protein Assay Kit (Thermo Fisher, Cat No. 23225), the protein concentration of each sample was quantified according to the manual attached to the kit, and then was diluted and prepared with Lane Marker Reducing Sample Buffer (5×) (Thermo Fisher, Cat No. 39000) and Lysis buffer 6 to 1 mg/mL. The cells were incubated at 95° C. for 5 minutes to prepare WB samples. WB samples were stored at −30° C. until electrophoresis.
(§6) The WB sample was thawed and used after vortex mixing and spin down. […]

BRD2 = target: T2, BRD2 (Homo sapiens, UniProt P25440); experiment: Evaluation of BET proteolysis in SU-DHL-4 cell line by Western blotting: BRD2 (Test Example 4)
T2 construct: Changes in the amount of BRD4, BRD2 and BRD3 proteins in the SU-DHL-4 cell line; endogenous in cells; host or cells: SU-DHL-4
T2 sequence (P25440 whole entry): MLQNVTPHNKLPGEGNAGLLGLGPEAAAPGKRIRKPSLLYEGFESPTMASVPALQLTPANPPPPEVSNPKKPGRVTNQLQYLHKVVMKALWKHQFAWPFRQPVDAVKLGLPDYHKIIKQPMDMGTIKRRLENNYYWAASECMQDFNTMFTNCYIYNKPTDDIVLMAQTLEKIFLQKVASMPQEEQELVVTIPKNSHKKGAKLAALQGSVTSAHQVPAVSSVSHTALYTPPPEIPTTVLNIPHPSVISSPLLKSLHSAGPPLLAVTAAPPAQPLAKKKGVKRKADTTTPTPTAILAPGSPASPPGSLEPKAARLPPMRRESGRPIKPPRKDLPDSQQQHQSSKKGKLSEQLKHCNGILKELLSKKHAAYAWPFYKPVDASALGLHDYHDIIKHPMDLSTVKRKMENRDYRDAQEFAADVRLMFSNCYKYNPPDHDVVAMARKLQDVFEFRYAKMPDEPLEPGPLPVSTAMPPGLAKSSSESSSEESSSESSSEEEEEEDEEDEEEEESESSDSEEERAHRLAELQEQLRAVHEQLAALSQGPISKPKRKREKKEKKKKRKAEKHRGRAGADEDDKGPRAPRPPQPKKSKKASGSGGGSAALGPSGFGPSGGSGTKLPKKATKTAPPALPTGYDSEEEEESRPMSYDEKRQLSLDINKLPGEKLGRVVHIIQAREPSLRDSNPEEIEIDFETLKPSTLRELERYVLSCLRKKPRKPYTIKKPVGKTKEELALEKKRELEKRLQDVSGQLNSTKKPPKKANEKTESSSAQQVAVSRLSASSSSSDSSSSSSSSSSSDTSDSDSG
Protocol: as §1
Anti-BRD2 antibody: Brd2 (D8964) Rabbit mAb (Cell Signaling Technology, Cat No. #5848S)
as §2, §3, §4, §5, §6

BRD4 = target: T3, BRD4 (Homo sapiens, UniProt O60885); experiment: Evaluation of BET proteolysis in SU-DHL-4 cell line by Western blotting: BRD4 (Test Example 4)
T3 construct: Changes in the amount of BRD4, BRD2 and BRD3 proteins in the SU-DHL-4 cell line; endogenous in cells; host or cells: SU-DHL-4
Protocol: as §1
Anti-BRD4 antibody: BRD4 (E2A7X) Rabbit mAb (Cell Signaling Technology, Cat No. #13440S)
as §2, §3, §4, §5, §6

In the case of `Cc1sc2c(c1C)C(c1ccc(C(=O)NCCCNC(=O)c3ccc(C4=N[C@@H](CC(=O)OC(C)(C)C)c5nnc(C)n5-c5sc(C)c(C)c54)cc3)cc1)=N[C@@H](CC(=O)OC(C)(C)C)c1nnc(C)n1-2` [Compound 1b, Di-tert-butyl 2,2′-[(6S,6′S)-({[propane-1,3-diylbis(azanediyl)]bis(carbonyl)}bis(4,1-phenylene))bis(2,3,9-trimethyl-6H-thieno[3,2-f][1,2,4]triazolo[4,3-a][1,4]diazepine-4,6-diyl)]diacetate], the “change in amount of BRD3 protein (band in Western blotting, FIG. 1)” value (BRD3) is reported as “the band became faint compared with that of control”, the “change in amount of BRD2 protein (band in Western blotting, FIG. 1)” value (BRD2) is reported as “the band became faint compared with that of control” and the “change in amount of BRD4 protein (band in Western blotting, FIG. 1)” value (BRD4) is reported as “the band became faint compared with that of control”.

With `CCC(=O)N1c2ccccc2[C@H](Nc2ccc(C(=O)NCC(=O)CNC(=O)c3ccc(N[C@@H]4C[C@H](C)N(C(=O)CC)c5ccccc54)cc3)cc2)C[C@@H]1C` [Compound 1l, N,N′-(2-Oxopropane-1,3-diyl)bis(4-{[(2S,4R)-2-methyl-1-propionyl-1,2,3,4-tetrahydroquinolin-4-yl]amino}benzamide)] the “change in amount of BRD3 protein (band in Western blotting, FIG. 1)” value (BRD3) was “the band became faint compared with that of control”, the “change in amount of BRD2 protein (band in Western blotting, FIG. 1)” value (BRD2) was “the band became faint compared with that of control” and the “change in amount of BRD4 protein (band in Western blotting, FIG. 1)” value (BRD4) was “the band became faint compared with that of control”.
